Results reported in publication PMC4374867, “The Novel Tubulin Polymerization Inhibitor MHPT Exhibits Selective Anti-Tumor Activity against Rhabdomyosarcoma In Vitro and In Vivo” (PLoS ONE, 2015).

System: T1, tubulin (alpha- and beta-tubulin)
T1 construct: with alpha-/beta-tubulin heterodimer
Assay: cell-free fluorescence-based tubulin polymerization assay (Cytoskeleton BK011P)
Type: biochemical, Bos taurus

IC50: 6.28 µM
SMILES: COc1cccc(C=C2SC(=Nc3ccc(O)cc3)NC2=O)c1 [MHPT, 2-((4-hydroxyphenyl)imino)-5-(3-methoxybenzylidene)thiazolidin-4-one]
